According to patent US20230271947A1, “SALT AND CRYSTAL FORM OF KETOHEXOKINASE INHIBITOR AND USE THEREOF” (SHANDONG XUANZHU PHARMA CO., LTD., priority 2020, published 2023):
Blank lines part the entries; values can stand above or below the molecule they belong to.

Key:
KHK-C = molecular target: T1, KHK-C (Homo sapiens, UniProt P50053); assay: In vitro KHK kinase inhibitory activity test (ADP-Glo); type: biochemical; conditions: 1 nM KHK-C, 100 µM ATP, 200 µM D-Fructose
T1 construct: purchased Origene TP323488
T1 sequence (P50053 1-298): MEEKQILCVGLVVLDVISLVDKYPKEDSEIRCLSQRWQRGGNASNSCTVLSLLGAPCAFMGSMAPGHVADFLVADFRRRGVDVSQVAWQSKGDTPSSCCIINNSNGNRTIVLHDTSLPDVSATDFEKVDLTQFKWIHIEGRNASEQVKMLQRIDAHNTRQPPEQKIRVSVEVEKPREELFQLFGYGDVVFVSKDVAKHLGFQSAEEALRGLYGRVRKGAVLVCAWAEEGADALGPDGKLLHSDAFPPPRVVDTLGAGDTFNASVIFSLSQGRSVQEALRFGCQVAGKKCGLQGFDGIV
Method: 1) DMSO was used to prepare the compound of the present invention and a control drug to 10 mM, which was used as a testing stock solution.
2) The compound stock solution of the present invention was diluted 10-fold to 1 mM, and then the compound of the present invention was diluted in gradient 3-fold to 11 concentrations, with the highest concentration of 1 mM. The control drug stock solution was diluted 100-fold to 0.1 mM, and then the control drug was diluted in gradient 3-fold to 11 concentrations, with the highest concentration of 0.1 mM.
3) 0.1 µL of the diluted compound of the present invention and 0.1 µL of the diluted control drug were transferred by using Echo550 to a 384-well plate respectively, with two repeated wells set for each concentration, and centrifuged at 1,000 rpm for 1 min.
1) 5 µL of KHK-C kinase working fluid was added to a 384-well plate, centrifuged at 1,000 rpm for 1 min, and then incubated at a room temperature of 25° C. for 15 min. […]
3) After the reaction was completed, fluorescence value LUM was read on Envision.
Inhibition (% inh) was calculated by using the following equation: […]
IC50 was calculated by curve fitting with software.

[1] = Stability investigation of crystal forms A, B, C, D and the amorphous form of the compound of formula (1) (related substances by HPLC, moisture, XRD, DSC); type: physicochemical
Method: (§1) 2.1 Investigation conditions for the crystal form A of the compound of formula (1): • placed at 105° C. for 5 days, opened, and sampled for testing on day 5; • placed at 60° C. for 10 days, opened/closed, and sampled for testing on day 10; • placed at 25° C. and RH 92.5% for 10 days, opened/closed, and sampled for testing on day 10; • placed at 40° C. and RH 75% for one month, opened/closed, and sampled for testing on the last day of the month; and • under illumination, employing a closed way (polyethylene bag + composite film bag) to meet illumination requirements, and sampled for testing.
Illumination requirements: ICH Q1B Stability Testing: Photostability Testing of New Drug Substances and Products.
Determination of related substances: determined according to 0512 HPLC in General Principle (Volume IV) of Chinese Pharmacopoeia (2015 Version).
Moisture determination: determined according to 2 Coulometric Titration in the First Method (Karl Fischer titration) of 0832 Moisture Determination Method in General Principle (Volume IV) of Chinese Pharmacopoeia (2015 Version).
XRD determination: determined according to the Second Method-Powder X-ray Diffraction Method of 0451 X-ray Diffraction Method in General Principle (Volume IV) of Chinese Pharmacopoeia (2015 Version).
DSC determination: precisely weighing an appropriate amount of sample in a Standard disc, covering the Standard disc, placing the Standard disc in a sample disc position in a DSC furnace, placing a blank disc of the same type in a reference position, and carrying out the following temperature rise program:
1. Equilibrate at 25° C.; and
as §1, with “B” for “A”
as §1, with “C” for “A”
1. Equilibrate at 25° C.; and 2. Ramp 10° C. to 200° C.
as §1, with “D” for “A”
as §1, with “amorphous” for “crystal”, “form” for “form A”, “(1):” for “(1): • placed at 105° C. for 5 days, opened, and sampled for testing on day 5;”

[2] = system: D-Fructose-induced fructose-1-phosphate in HepG2 cells; assay: In vitro cell inhibitory activity test: D-Fructose-induced fructose-1-phosphate in HepG2 cells (LC-MS); type: cell-based; conditions: D-Fructose 3 h, read-out: EC50 (nM), inhibition of D-Fructose-induced fructose-1-phosphate
Method: 1) HepG2 cells in logarithmic growth phase were collected and counted by using a […]. Cell viability was detected by trypan blue exclusion method to ensure that the cell viability was above 90%.
2) A concentration of the HepG2 cells was adjusted, and 81 µL of FBS-free basal medium (starvation treated) cell suspension was added to each 96-well plate with a testing well cell inoculation quantity of 5 × 10^4.
3) The HepG2 cells in the 96-well plates were cultured overnight at 37° C., 5% CO2, and 95% humidity.
1) Before dosing, 9 µL of FBS was added into testing wells of the 96-well plate, and the starvation treatment was stopped.
2) A 10-fold compound solution was prepared, with the highest concentration of 100 µM, 8 concentrations and 3-fold gradient dilution. 10 µL of drug solution was added to each well of the 96-well plate inoculated with the cells, and three repeated wells were set for each drug concentration. 10 µL of 1% DMSO solution was added to the solvent control group, and three repeated wells were set.
3) The cells in the 96-well plates added with the drug were incubated at 37° C., 5% CO2, and 95% humidity for 30 min.
4) A 11-fold D-Fructose solution was prepared, with a concentration of 220 mM. […]
Data were analyzed by GraphPad Prism 5.0 software, a dose-effect curve was obtained by using nonlinear S-curve regression, and the EC50 value was calculated.

[3] = 25° C., RH 92.5%, closed, 10 days
[4] = 25° C., RH 92.5%, opened, 10 days

IC50 (KHK-C): 0.82 nM
SMILES: C[C@H]1CCN1c1nc(N2C[C@@H]3[C@@H](CC(=O)O)[C@@H]3C2)c2c(n1)C(F)(F)CC2 [Compound of formula (1), 2-((1R,5S,6R)-3-(7,7-difluoro-2-((S)-2-methylazetidin-1-yl)-6,7-dihydro-5H-cyclopenta[d]pyrimidin-4-yl)-3-azabicyclo[3.1.0]hexan-6-yl)acetic acid]

DSC ([1]; 0 day): 167.79 °C
Moisture % ([1]; 0 day): 0.066%
Total related % ([1]; 0 day): 0.37%
Trait ([1]; 0 day): Off-white power
DSC [1, 3]: 167.46 °C
Moisture % [1, 3]: 0.092%
Total related % [1, 3]: 0.38%
Trait [1, 3]: Off-white power
XRD [1, 3]: Same as day 0
DSC [1, 4]: 167.51 °C
Moisture % [1, 4]: 0.048%
Total related % [1, 4]: 0.38%
Trait [1, 4]: Off-white power
XRD [1, 4]: Same as day 0
DSC ([1]; 40° C., RH 75%, closed, 1 M): 167.77 °C
Moisture % ([1]; 40° C., RH 75%, closed, 1 M): 0.065%
Total related % ([1]; 40° C., RH 75%, closed, 1 M): 0.38%
Trait ([1]; 40° C., RH 75%, closed, 1 M): Off-white power
XRD ([1]; 40° C., RH 75%, closed, 1 M): Same as day 0
DSC ([1]; 40° C., RH 75%, opened, 1 M): 167.75 °C
Moisture % ([1]; 40° C., RH 75%, opened, 1 M): 0.12%
Total related % ([1]; 40° C., RH 75%, opened, 1 M): 0.39%
Trait ([1]; 40° C., RH 75%, opened, 1 M): Off-white power
XRD ([1]; 40° C., RH 75%, opened, 1 M): Same as day 0
DSC ([1]; 60° C., closed, 10 days): 167.43 °C
Moisture % ([1]; 60° C., closed, 10 days): 0.089%
Total related % ([1]; 60° C., closed, 10 days): 0.40%
Trait ([1]; 60° C., closed, 10 days): Off-white power
XRD ([1]; 60° C., closed, 10 days): Same as day 0
DSC ([1]; 60° C., opened, 10 days): 167.41 °C
Moisture % ([1]; 60° C., opened, 10 days): 0.079%
Total related % ([1]; 60° C., opened, 10 days): 0.41%
Trait ([1]; 60° C., opened, 10 days): Off-white power
XRD ([1]; 60° C., opened, 10 days): Same as day 0
DSC ([1]; 105° C., opened, 5 days): 167.19 °C
Moisture % ([1]; 105° C., opened, 5 days): 0.045%
Total related % ([1]; 105° C., opened, 5 days): 0.51%
Trait ([1]; 105° C., opened, 5 days): Off-white power
XRD ([1]; 105° C., opened, 5 days): Same as day 0
DSC ([1]; Avoid light for 18 days): 167.49 °C
Moisture % ([1]; Avoid light for 18 days): 0.048%
Total related % ([1]; Avoid light for 18 days): 0.38%
Trait ([1]; Avoid light for 18 days): Off-white power
XRD ([1]; Avoid light for 18 days): Same as day 0
Stability, testing conclusion ([1]; under the above conditions (all placement conditions of the study)): relatively stable
SMILES: C[C@H]1CCN1c1nc(N2C[C@@H]3[C@@H](CC(=O)O)[C@@H]3C2)c2c(n1)C(F)(F)CC2 [Crystal form D, 2-((1R,5S,6R)-3-(7,7-difluoro-2-((S)-2-methylazetidin-1-yl)-6,7-dihydro-5H-cyclopenta[d]pyrimidin-4-yl)-3-azabicyclo[3.1.0]hexan-6-yl)acetic acid]

EC50 [2]: 169 nM
SMILES: C[C@H]1CCN1c1nc(N2C[C@@H]3[C@@H](CC(=O)O)[C@@H]3C2)cc(C(F)(F)F)n1 [PF-06835919]
